According to article PMC7307922 (Journal of Medicinal Chemistry, 2020):
Structures can show the parent of a compound that is named as a salt. Where two headings read alike, the source gives them in different places.

Biological target: T1, hFFA3 (Homo sapiens, UniProt O14843)
T1 sequence (O14843 1-346): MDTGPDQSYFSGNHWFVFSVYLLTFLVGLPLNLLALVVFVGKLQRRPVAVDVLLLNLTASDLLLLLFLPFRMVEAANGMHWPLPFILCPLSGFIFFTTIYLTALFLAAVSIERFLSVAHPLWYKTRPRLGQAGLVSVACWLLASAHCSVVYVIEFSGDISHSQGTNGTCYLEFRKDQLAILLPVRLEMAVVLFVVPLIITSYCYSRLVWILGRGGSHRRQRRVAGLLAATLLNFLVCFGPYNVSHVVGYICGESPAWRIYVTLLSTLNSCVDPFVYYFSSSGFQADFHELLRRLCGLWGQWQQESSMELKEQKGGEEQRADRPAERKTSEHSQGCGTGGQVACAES
Experiment: cell-based
Conditions: for Emax: HEK293, read-out: cAMP Emax; for cAMP pEC50: compound alone, mean of ≥3 independent experiments ± standard error; for PAM pEC50: cAMP assay in the presence of 1 μM propionate; for allosteric effect on propionate response: cAMP assay together with propionate (56: 30 μM compound; 62, 63: 1 μM propionate)
Experimental: The ligands were initially screened in a human FFA3-dependent [^35S]GTPγS binding assay as this assay reflects receptor-mediated activation of Gi/o proteins and is known to generally correlate well with ligand affinity.[30] Analogues of particular interest were tested further in a cAMP inhibition assay as this is an important downstream effect of Gi-activation. […] It is furthermore performed in whole cells, is more downstream, includes G protein signal amplification, and therefore better reflects a more natural ligand–receptor response.
HEK293 Flp-In T-Rex cells stably transfected with FFA3-eYFP receptors were incubated overnight with doxycycline to induce expression, then harvested, and cryopreserved. On the day of each experiment, cells were thawed and resuspended in stimulation buffer. Assays were carried out using a 384-well plate format with 3000 cells/well using the CisBio cAMP GS dynamic kit as per manufacturer’s protocol. Compounds were tested for the ability to inhibit 0.3 μM forskolin-induced cAMP production after co-incubation for 1 h. Reactions were measured using a PHERAstar FS plate reader (BMGLabtech, Aylesbury, UK).

[1] = read-out: EC50 (cAMP assay), hFFA3

Structure (SMILES)	Emax [%]	cAMP pEC50 (hFFA3)	PAM pEC50	other results
CC1=C(C(=O)Nc2ccccc2C)[C@@H](c2ccco2)C2=C(CCCC2=O)N1 [(S)-1]	–	–	–	EC50: 2000 nM
CCC1=C(C(=O)Nc2ccccc2C)C(c2ccco2)C2=C(CCCC2=O)N1 (stereo not shown) [Compound 22, 2-Ethyl-4-(furan-2-yl)-5-oxo-N-(o-tolyl)-1,4,5,6,7,8-hexahydroquinoline-3-carboxamide]	95	5.47 ± 0.04	–	–
Cc1ccccc1NC(=O)C1=C(c2ccccc2)NC2=C(C(=O)CCC2)C1c1ccco1 (stereo not shown) [Compound 23, 4-(Furan-2-yl)-5-oxo-2-phenyl-N-(o-tolyl)-1,4,5,6,7,8-hexahydroquinoline-3-carboxamide]	–	completely inactive and nr^c	–	–
CC1=C(C(=O)Nc2ccccc2C)C(CC(C)C)C(C(=O)c2ccccc2)=C(C)N1 (stereo not shown) [Compound 25, 5-Benzoyl-4-isobutyl-2,6-dimethyl-N-(o-tolyl)-1,4-dihydropyridine-3-carboxamide]	–	nr^c	nr^c	EC50: > 100000 nM
COC(=O)C1=C(C)NC(C)=C(C(=O)Nc2ccccc2C)C1CC(C)C (stereo not shown) [Compound 26, Methyl 4-isobutyl-2,6-dimethyl-5-(o-tolylcarbamoyl)-1,4-dihydropyridine-3-carboxylate]	–	nr^c	6.16 ± 0.12	EC50: > 100000 nM; allosteric effect on propionate response: PAM
CC1=C(C#N)C(CC(C)C)C(C(=O)Nc2ccccc2C)=C(C)N1 (stereo not shown) [Compound 27, 5-Cyano-4-isobutyl-2,6-dimethyl-N-(o-tolyl)-1,4-dihydropyridine-3-carboxamide]	–	3.99 ± 0.01	6.42 ± 0.09	–
COC(=O)C1=C(C)NC2=C(C(=O)CCC2)C1CC(C)C (stereo not shown) [Compound 28, Methyl 4-isobutyl-2-methyl-5-oxo-1,4,5,6,7,8-hexahydroquinoline-3-carboxylate]	–	inactive alone and nr^c	6.21 ± 0.10	allosteric effect on propionate response: PAM properties
CC1=C(C(=O)c2ccccc2)C(CC(C)C)C2=C(CCCC2=O)N1 (stereo not shown) [Compound 29, 3-Benzoyl-4-isobutyl-2-methyl-4,6,7,8-tetrahydroquinolin-5(1H)-one]	–	inactive alone and nr^c	>4	allosteric effect on propionate response: PAM properties
CCC(C)C1C(C(=O)Nc2ccccc2C)=C(C)NC2=C1C(=O)CCC2 (stereo not shown) [Compound 30, 4-(sec-Butyl)-2-methyl-5-oxo-N-(o-tolyl)-1,4,5,6,7,8-hexahydroquinoline-3-carboxamide]	110	5.00 ± 0.07	6.30 ± 0.04	–
CC1=C(C(=O)Nc2ccccc2C)C(C2CCCCC2)C2=C(CCCC2=O)N1 (stereo not shown) [Compound 31, 4-Cyclohexyl-2-methyl-5-oxo-N-(o-tolyl)-1,4,5,6,7,8-hexahydroquinoline-3-carboxamide]	91	5.26 ± 0.10	–	–
CC1=C(C(=O)Nc2ccccc2C)C(C2CCCC2)C2=C(CCCC2=O)N1 (stereo not shown) [Compound 32, 4-Cyclopentyl-2-methyl-5-oxo-N-(o-tolyl)-1,4,5,6,7,8-hexahydroquinoline-3-carboxamide]	102	6.54 ± 0.02	–	increase in potency (cyclopentyl relative to cyclohexyl (31)): 20 fold; EC50 [1]: 288 nM
CC1=C(C(=O)Nc2ccccc2C)C(C2CC2)C2=C(CCCC2=O)N1 (stereo not shown) [Compound 33, 4-Cyclopropyl-2-methyl-5-oxo-N-(o-tolyl)-1,4,5,6,7,8-hexahydroquinoline-3-carboxamide]	102	6.22 ± 0.10	–	EC50 [1]: 600 nM
CCC1C(C(=O)Nc2ccccc2C)=C(C)NC2=C1C(=O)CCC2 (stereo not shown) [Compound 34, 4-Ethyl-2-methyl-5-oxo-N-(o-tolyl)-1,4,5,6,7,8-hexahydroquinoline-3-carboxamide]	106	5.38 ± 0.13	6.45 ± 0.16	–
CCCCC1C(C(=O)Nc2ccccc2C)=C(C)NC2=C1C(=O)CCC2 (stereo not shown) [Compound 36, 2-Methyl-5-oxo-4-butyl-N-(o-tolyl)-1,4,5,6,7,8-hexahydroquinoline-3-carboxamide]	–	5.86 ± 0.03	6.58 ± 0.06	–
CCCCCC1C(C(=O)Nc2ccccc2C)=C(C)NC2=C1C(=O)CCC2 (stereo not shown) [Compound 37, 2-Methyl-5-oxo-4-pentyl-N-(o-tolyl)-1,4,5,6,7,8-hexahydroquinoline-3-carboxamide]	–	5.60 ± 0.17	6.40 ± 0.10	–
CC1=C(C(=O)Nc2ccccc2C)C(CCc2ccccc2)C2=C(CCCC2=O)N1 (stereo not shown) [Compound 38, 2-Methyl-5-oxo-4-phenethyl-N-(o-tolyl)-1,4,5,6,7,8-hexahydroquinoline-3-carboxamide]	97	4.21 ± 0.27	6.23 ± 0.03	EC50: > 10000 nM
CC1=C(C(=O)Nc2ccccc2C)C(/C=C/c2ccccc2)C2=C(CCCC2=O)N1 (stereo not shown) [Compound 39]	113	4.34 ± 0.18	6.14 ± 0.07	EC50: > 10000 nM
CC1=C(C(=O)Nc2cc(Cl)ccc2Cl)C(CCn2cccn2)C2=C(CCCC2=O)N1 (stereo not shown) [Compound 40, 4-(2-(1H-Pyrazol-1-yl)ethyl)-N-(2,5-dichlorophenyl)-2-methyl-5-oxo-1,4,5,6,7,8-hexahydroquinoline-3-carboxamide]	96	4.95 ± 0.08	–	EC50: > 10000 nM
CC1=C(C(=O)Nc2ccccc2C)C(c2cccn2C)C2=C(CCCC2=O)N1 (stereo not shown) [Compound 41, 2-Methyl-4-(1-methyl-1H-pyrrol-2-yl)-5-oxo-N-(o-tolyl)-1,4,5,6,7,8-hexahydroquinoline-3-carboxamide]	97	4.45 ± 0.09	–	–
CC1=C(C(=O)Nc2ccccc2C)C(c2ccc(C)o2)C2=C(CCCC2=O)N1 (stereo not shown) [Compound 42, 2-Methyl-4-(5-methylfuran-2-yl)-5-oxo-N-(o-tolyl)-1,4,5,6,7,8-hexahydroquinoline-3-carboxamide]	100	5.96 ± 0.03	–	–
CC1=C(C(=O)Nc2ccccc2C)C(c2cc(C)cs2)C2=C(CCCC2=O)N1 (stereo not shown) [Compound 43, 2-Methyl-4-(4-methylthiophen-2-yl)-5-oxo-N-(o-tolyl)-1,4,5,6,7,8-hexahydroquinoline-3-carboxamide]	102	5.86 ± 0.04	–	–
CC1=C(C(=O)Nc2ccccc2C)C(c2ccc(Br)o2)C2=C(CCCC2=O)N1 (stereo not shown) [Compound 44, 4-(5-Bromofuran-2-yl)-2-methyl-5-oxo-N-(o-tolyl)-1,4,5,6,7,8-hexahydroquinoline-3-carboxamide]	95	6.61 ± 0.02	–	–
CC1=C(C(=O)Nc2ccccc2C)C(c2cc3ccccc3o2)C2=C(CCCC2=O)N1 (stereo not shown) [Compound 45, 4-(Benzofuran-2-yl)-2-methyl-5-oxo-N-(o-tolyl)-1,4,5,6,7,8-hexahydroquinoline-3-carboxamide]	98	6.00 ± 0.02	–	–
CC1=C(C(=O)Nc2ccccc2C)C(c2csc3ccccc23)C2=C(CCCC2=O)N1 (stereo not shown) [Compound 46, 4-(Benzo[b]thiophen-3-yl)-2-methyl-5-oxo-N-(o-tolyl)-1,4,5,6,7,8-hexahydroquinoline-3-carboxamide]	95	5.11 ± 0.04	–	–
CC1=C(C(=O)Nc2cc(Cl)ccc2Cl)C(CN)C2=C(CCCC2=O)N1 (stereo not shown) [Compound 52, 4-(Aminomethyl)-N-(2,5-dichlorophenyl)-2-methyl-5-oxo-1,4,5,6,7,8-hexahydroquinoline-3-carboxamide Hydrochloride]	–	nr^d	–	–
CC1=C(C(=O)Nc2cc(Cl)ccc2Cl)C(CC2CCNCC2)C2=C(CCCC2=O)N1 (stereo not shown) [Compound 53, N-(2,5-Dichlorophenyl)-2-methyl-5-oxo-4-(piperidin-4-ylmethyl)-1,4,5,6,7,8-hexahydroquinoline-3-carboxamide Hydrochloride]	–	nr^d	–	–
CCN(CC)CCOCC1C(C(=O)Nc2cc(Cl)ccc2Cl)=C(C)NC2=C1C(=O)CCC2 (stereo not shown) [Compound 54, N-(2,5-Dichlorophenyl)-4-((2-(diethylamino)ethoxy)methyl)-2-methyl-5-oxo-1,4,5,6,7,8-hexahydroquinoline-3-carboxamide]	–	nr^d	–	–
CC1=C(C(=O)Nc2cc(Cl)ccc2Cl)C(CNC(=O)OC(C)(C)C)C2=C(CCCC2=O)N1 (stereo not shown) [Compound 55, tert-Butyl((3-((2,5-dichlorophenyl)carbamoyl)-2-methyl-5-oxo-1,4,5,6,7,8-hexahydroquinolin-4-yl)methyl)carbamate]	–	nr^d	–	–
CC1=C(C(=O)Nc2cc(Cl)ccc2Cl)C(CC2CCN(C(=O)OC(C)(C)C)CC2)C2=C(CCCC2=O)N1 (stereo not shown) [Compound 56, tert-Butyl 4-((3-((2,5-dichlorophenyl)carbamoyl)-2-methyl-5-oxo-1,4,5,6,7,8-hexahydroquinolin-4-yl)methyl)piperidine-1-carboxylate]	–	nr^d	–	allosteric effect on propionate response: NAM
